Results taken from PMC4548482 (Neuropharmacology, 2015).

Key:
rat α7 nAChRs = target: T1, rat α7 nAChRs (Rattus norvegicus, UniProt Q05941); assay: Two-electrode voltage-clamp recording, rat α7 nAChRs in Xenopus oocytes; type: cell-based; details: mean ± SEM
T1 construct: expressed in transfected cells; host or cells: Xenopus laevis oocytes
Excerpt: (§1) All plasmid constructs used in this study have been described previously. These include plasmids containing cDNAs encoding human α3, α4, α7, β2 and β4 nAChR subunits in pSP64GL ([Broadbent et al., 2006]); rat α7 nAChR subunit in pcDNA3 ([Cooper and Millar, 1997]); α7/5-HT3A subunit chimera (containing the rat α7 N-terminal domain and mouse 5-HT3A transmembrane and C-terminal domain) in pcDNA3 ([Cooper and Millar, 1998]); human RIC-3 in pRK5 ([Lansdell et al., 2005]) and mouse 5-HT3A ([Maricq et al., 1991]) in pRK5.
(§2) Oocytes were isolated from adult female Xenopus laevis following procedures that have been approved by UCL's Biological Services Management Group and the UK Home Office. Oocytes were defolliculated as described previously ([Young et al., 2007]) by treatment with collagenase (2 mg/ml; Worthington Biochemicals, Freehold, NJ) in calcium-free Barth's solution containing 88 mM NaCl, 2.4 mM NaHCO3, 1 mM KCl, 0.82 mM MgSO4, and 15 mM Tris, pH 7.5. Heterologous expression was achieved by injection of wild-type or mutated α7 cRNA (6–12 ng) into oocyte cytoplasm. Oocytes were injected in a volume of 20–30 nl using a Drummond variable volume microinjector. After injection, oocytes were incubated at 18 °C in a calcium-containing Barth's solution (composition, as above, but with 0.77 mM CaCl2) supplemented with antibiotics (100 units/ml penicillin, 100 μg/ml streptomycin, 4 μg/ml kanamycin, and 50 μg/ml tetracycline). Experiments were performed on oocytes after 3–5 days of incubation. […] Two-electrode voltage-clamp recordings were performed (with the oocyte membrane potential held at −60 mV), as described previously ([Gill et al., 2012; Young et al., 2007]).

human α7 nAChRs [1] = target: T2, human α7 nAChRs (Homo sapiens, UniProt P36544); type: binding; details: [3H]-α-bungarotoxin 1 nM; tsA201 cells
T2 construct: expressed in transfected cells; host or cells: Xenopus laevis oocytes (cRNA injection)

human α3β4 nAChRs = target: T3, human α3β4 nAChRs (Homo sapiens, UniProt P30926+P32297); assay: Two-electrode voltage-clamp recording, human α3β4 nAChRs in Xenopus oocytes; type: cell-based; parameters: concentration or dose not given beside the values; details: inhibition of agonist-evoked responses, mean ± SEM
T3 construct: expressed in transfected cells; host or cells: Xenopus laevis oocytes
Excerpt: as §1, §2

mouse 5-HT3A = target: T4, mouse 5-HT3A (Mus musculus, UniProt P23979); assay: Two-electrode voltage-clamp recording, mouse 5-HT3ARs in Xenopus oocytes; type: cell-based; parameters: concentration or dose not given beside the values; details: inhibition of agonist-evoked responses, mean ± SEM
T4 construct: expressed in transfected cells; host or cells: Xenopus laevis oocytes
T4 sequence (P23979 24-489): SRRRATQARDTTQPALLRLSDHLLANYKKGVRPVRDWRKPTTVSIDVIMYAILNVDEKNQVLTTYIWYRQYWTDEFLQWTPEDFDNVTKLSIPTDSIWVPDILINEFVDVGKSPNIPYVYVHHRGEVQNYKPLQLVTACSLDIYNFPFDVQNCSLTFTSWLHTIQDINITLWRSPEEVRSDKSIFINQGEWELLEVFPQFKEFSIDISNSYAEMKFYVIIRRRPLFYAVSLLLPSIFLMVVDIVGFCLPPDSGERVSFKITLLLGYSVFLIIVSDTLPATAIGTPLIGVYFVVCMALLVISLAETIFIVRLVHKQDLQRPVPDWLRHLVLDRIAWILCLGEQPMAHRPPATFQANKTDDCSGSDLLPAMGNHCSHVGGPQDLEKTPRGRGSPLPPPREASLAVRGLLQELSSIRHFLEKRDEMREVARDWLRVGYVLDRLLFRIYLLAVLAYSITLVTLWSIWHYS
Excerpt: as §1, §2

α7 M260L nAChRs = target: T5, α7 M260L nAChRs (Homo sapiens, UniProt P36544, M283L); assay: Two-electrode voltage-clamp recording, human α7 nAChRs containing the M260L mutation in Xenopus oocytes; type: cell-based; details: for Fold potentiation (maximum peak response compared to acetylcholine alone): acetylcholine 100 μM, pre- and co-application of modulator (10 μM); for Agonist effect on M260L receptors: compound applied alone; for Imax: normalised to the maximum response to acetylcholine
T5 construct: expressed in transfected cells; host or cells: Xenopus laevis oocytes (cRNA injection)
Description: (§3) Site-directed mutagenesis was performed on human nAChR α7 subunit cDNA in plasmid pSP64GL using the QuikChange mutagenesis kit (Stratagene) and verified by nucleotide sequencing. Plasmid pSP64GL containing wild-type or mutated human α7 cDNA was linearized with BamHI and purified with QIAQuik PCR purification kit (Qiagen). In vitro synthesis of cRNA was performed using mMessage mMachine SP6 transcription kit (Life Technologies).
(§4) Oocytes were isolated from adult female Xenopus laevis following procedures that have been approved by UCL's Biological Services Management Group and the UK Home Office. […] Heterologous expression was achieved by injection of wild-type or mutated α7 cRNA (6–12 ng) into oocyte cytoplasm. Oocytes were injected in a volume of 20–30 nl using a Drummond variable volume microinjector. […] Experiments were performed on oocytes after 3–5 days of incubation.

human α4β2 nAChRs = target: T6, human α4β2 nAChRs (Homo sapiens, UniProt P17787+P43681); assay: Two-electrode voltage-clamp recording, human α4β2 nAChRs in Xenopus oocytes; type: cell-based; parameters: concentration or dose not given beside the values; details: inhibition of agonist-evoked responses, mean ± SEM
T6 construct: expressed in transfected cells; host or cells: Xenopus laevis oocytes
Excerpt: as §1, §2

human α7 nAChRs [2] = target: T2, human α7 nAChRs; assay: Two-electrode voltage-clamp recording, wild-type human α7 nAChRs expressed in Xenopus oocytes; type: cell-based; details: for Fold potentiation: Human α7, maximum fold potentiation of responses to an EC50 of acetylcholine (100 μM), mean ± SEM; for Desensitisation after receptor reactivation: acetylcholine co-applied with compound, period of 30 s; for Total net charge transfer relative to initial application of acetylcholine alone: measured during a 30 s application of compound in continued presence of acetylcholine (100 μM); for Effect on rate of desensitisation of acetylcholine-evoked responses: wild-type α7, acetylcholine 100 μM, pre- and co-application of PAM; for Imax: Wild-type α7, normalised to the maximum response to acetylcholine
Description: All plasmid constructs used in this study have been described previously.
as §4

[3] = target: T7, α7/5-HT3A subunit chimera (rat α7 N-terminal domain, mouse 5-HT3A transmembrane and C-terminal domain) (UniProt P23979+Q05941, M226I/T225I); assay: Two-electrode voltage-clamp recording, α7/5-HT3A subunit chimera in Xenopus oocytes; type: cell-based; parameters: concentration or dose not given beside the values; details: α7/5-HT3A chimera; inhibition of agonist-evoked responses; mean ± SEM
T7 construct: containing the extracellular/N-terminal domain of the rat α7 nAChR subunit; the transmembrane/C-terminal domain of the mouse 5-HT3A subunit; expressed in transfected cells; host or cells: Xenopus laevis oocytes
Excerpt: as §1, §2

α7 L247T nAChRs = target: T8, α7 L247T nAChRs (Homo sapiens, UniProt P36544, L270T); assay: Two-electrode voltage-clamp recording, human α7 nAChRs containing the L247T mutation in Xenopus oocytes; type: cell-based; details: α7 L247T; for nH (Hill coefficient) / EC50: mean ± SEM; for EC50: read-out: EC50 (agonist); for Imax: normalised to the maximum response to acetylcholine
T8 construct: expressed in transfected cells; host or cells: Xenopus laevis oocytes (cRNA injection)
Description: as §3, §4

[4] = wild-type α7 desensitised by continued acetylcholine (100 μM), compound 10 μM
[5] = M260L α7, type I PAM 10 μM pre-applied for 10 s then co-applied, n = 3

T7 sequence (Q05941+P23979 fused Q05941:T225I/Q05941:M226I): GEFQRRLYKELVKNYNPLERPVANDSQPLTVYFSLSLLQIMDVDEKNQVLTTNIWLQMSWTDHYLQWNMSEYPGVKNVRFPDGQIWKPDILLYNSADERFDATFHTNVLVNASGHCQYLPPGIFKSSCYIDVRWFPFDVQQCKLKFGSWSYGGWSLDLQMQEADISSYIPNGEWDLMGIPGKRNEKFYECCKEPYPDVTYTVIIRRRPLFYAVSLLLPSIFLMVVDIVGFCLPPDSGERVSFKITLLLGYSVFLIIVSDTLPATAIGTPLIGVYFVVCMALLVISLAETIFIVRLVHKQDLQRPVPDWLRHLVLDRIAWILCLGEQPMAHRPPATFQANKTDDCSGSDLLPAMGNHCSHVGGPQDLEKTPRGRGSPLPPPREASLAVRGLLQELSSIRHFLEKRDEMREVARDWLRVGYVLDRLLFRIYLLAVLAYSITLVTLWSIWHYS
T5 sequence (P36544 23-502 M283L): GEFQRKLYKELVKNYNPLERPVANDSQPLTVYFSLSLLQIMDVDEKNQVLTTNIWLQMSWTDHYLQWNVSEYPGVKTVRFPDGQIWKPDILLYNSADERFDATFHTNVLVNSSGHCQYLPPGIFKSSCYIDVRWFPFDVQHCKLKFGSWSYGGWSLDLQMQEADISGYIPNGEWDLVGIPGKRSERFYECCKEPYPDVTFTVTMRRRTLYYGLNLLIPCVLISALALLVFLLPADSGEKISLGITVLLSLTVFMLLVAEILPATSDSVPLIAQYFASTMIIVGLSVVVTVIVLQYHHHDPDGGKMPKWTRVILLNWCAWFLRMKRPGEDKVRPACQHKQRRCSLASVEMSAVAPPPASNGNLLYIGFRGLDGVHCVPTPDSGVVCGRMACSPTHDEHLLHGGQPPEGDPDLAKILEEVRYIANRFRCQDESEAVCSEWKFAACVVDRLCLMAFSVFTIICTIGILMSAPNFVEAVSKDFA
T8 sequence (P36544 23-502 L270T): as the sequence (P36544 23-502 M283L) above, with L248T, L261M counted along it
T2 sequence (P36544 23-502): as the sequence (P36544 23-502 M283L) above, with L261M counted along it
T3 sequence (P32297 32-505): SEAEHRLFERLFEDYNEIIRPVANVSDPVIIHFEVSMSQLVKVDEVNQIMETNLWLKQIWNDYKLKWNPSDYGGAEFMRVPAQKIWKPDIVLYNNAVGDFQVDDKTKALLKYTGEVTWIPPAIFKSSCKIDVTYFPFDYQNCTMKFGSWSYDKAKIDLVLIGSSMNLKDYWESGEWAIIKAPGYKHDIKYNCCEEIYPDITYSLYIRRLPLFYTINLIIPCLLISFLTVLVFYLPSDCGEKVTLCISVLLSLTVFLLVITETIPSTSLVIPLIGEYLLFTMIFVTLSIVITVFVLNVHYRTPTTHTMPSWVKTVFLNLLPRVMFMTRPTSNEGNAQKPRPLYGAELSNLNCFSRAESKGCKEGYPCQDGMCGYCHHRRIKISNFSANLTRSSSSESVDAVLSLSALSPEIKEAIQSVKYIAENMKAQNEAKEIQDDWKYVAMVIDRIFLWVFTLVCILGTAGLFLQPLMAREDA
T3 sequence (P30926 22-498): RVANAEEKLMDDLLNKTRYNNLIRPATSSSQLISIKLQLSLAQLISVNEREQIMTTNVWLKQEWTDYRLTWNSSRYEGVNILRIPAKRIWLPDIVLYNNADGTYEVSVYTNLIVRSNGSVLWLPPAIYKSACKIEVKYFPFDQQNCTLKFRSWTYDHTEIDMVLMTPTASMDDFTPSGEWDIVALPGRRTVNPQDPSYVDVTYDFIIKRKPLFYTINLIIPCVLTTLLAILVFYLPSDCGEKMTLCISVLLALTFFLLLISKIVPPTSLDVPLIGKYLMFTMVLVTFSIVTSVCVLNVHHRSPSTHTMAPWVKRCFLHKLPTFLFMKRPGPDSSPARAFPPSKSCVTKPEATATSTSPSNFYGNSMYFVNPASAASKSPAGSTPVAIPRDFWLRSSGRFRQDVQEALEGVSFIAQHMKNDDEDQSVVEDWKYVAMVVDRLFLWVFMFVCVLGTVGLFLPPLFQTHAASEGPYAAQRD
T6 sequence (P43681 29-627 limits assumed): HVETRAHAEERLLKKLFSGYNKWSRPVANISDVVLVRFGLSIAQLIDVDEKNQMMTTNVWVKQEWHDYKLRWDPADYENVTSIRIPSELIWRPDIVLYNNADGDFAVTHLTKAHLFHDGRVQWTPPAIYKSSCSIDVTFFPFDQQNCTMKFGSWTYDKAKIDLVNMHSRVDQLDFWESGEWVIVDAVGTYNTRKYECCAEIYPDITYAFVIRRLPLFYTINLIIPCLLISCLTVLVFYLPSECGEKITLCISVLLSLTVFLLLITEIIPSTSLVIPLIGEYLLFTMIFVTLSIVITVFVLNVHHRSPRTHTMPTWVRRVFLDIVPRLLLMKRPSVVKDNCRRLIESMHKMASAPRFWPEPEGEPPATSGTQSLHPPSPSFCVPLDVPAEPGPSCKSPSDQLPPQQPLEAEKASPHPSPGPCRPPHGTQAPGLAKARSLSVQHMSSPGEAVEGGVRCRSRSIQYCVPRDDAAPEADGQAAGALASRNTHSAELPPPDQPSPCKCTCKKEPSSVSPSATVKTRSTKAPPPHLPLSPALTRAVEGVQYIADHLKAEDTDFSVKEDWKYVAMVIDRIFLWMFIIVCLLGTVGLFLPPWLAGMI
T6 sequence (P17787 26-502): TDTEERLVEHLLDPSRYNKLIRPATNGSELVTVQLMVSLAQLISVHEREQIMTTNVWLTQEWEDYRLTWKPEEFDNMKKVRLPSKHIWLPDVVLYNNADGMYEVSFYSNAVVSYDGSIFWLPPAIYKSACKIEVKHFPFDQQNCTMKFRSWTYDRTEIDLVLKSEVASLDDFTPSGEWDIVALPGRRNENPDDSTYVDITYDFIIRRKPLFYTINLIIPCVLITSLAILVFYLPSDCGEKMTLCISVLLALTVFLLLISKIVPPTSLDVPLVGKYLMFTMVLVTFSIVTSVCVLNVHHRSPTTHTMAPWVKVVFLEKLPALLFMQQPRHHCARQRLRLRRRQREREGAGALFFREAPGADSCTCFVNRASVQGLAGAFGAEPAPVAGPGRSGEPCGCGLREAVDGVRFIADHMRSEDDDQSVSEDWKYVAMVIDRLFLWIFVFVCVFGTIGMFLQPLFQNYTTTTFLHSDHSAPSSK
T1 sequence (Q05941 23-502): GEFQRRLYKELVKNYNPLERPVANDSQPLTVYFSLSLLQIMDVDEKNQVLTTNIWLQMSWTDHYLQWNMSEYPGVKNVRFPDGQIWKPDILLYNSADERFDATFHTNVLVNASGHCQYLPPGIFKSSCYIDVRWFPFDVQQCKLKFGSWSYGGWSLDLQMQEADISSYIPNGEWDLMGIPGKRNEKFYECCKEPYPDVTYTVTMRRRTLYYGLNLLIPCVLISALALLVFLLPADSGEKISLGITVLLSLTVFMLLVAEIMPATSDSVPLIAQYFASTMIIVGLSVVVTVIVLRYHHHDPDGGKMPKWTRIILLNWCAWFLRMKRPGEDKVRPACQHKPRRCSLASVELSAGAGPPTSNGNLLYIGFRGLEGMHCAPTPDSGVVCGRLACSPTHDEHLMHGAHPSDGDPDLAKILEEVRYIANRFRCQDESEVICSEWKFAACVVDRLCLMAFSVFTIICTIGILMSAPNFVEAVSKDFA

SMILES | Fold potentiation (rat α7 nAChRs) | Displacement of [3H]-α-bungarotoxin binding (human α7 nAChRs [1]) | % Inhibition (human α3β4 nAChRs) | % Inhibition (mouse 5-HT3A) | Fold potentiation (maximum peak response compared to acetylcholine alone) (α7 M260L nAChRs; M260L α7) | Agonist effect on M260L receptors (α7 M260L nAChRs) | % Inhibition (human α4β2 nAChRs) | Fold potentiation (human α7 nAChRs [2]) | Desensitisation after receptor reactivation (human α7 nAChRs [2]) | Total net charge transfer relative to initial application of acetylcholine alone (human α7 nAChRs [2]) | Effect on rate of desensitisation of acetylcholine-evoked responses (human α7 nAChRs [2]) | Recovery from desensitisation (reactivation of desensitised receptors) (human α7 nAChRs [2]; [4]) | Response on reactivation of desensitised receptors as % of the response to 100 μM acetylcholine (human α7 nAChRs [2]; [4]) | % Inhibition [3] | melting point | nH (Hill coefficient) (α7 L247T nAChRs) | EC50 (α7 L247T nAChRs) | Imax (α7 L247T nAChRs) | Imax (α7 M260L nAChRs; α7 M260L) | Imax (human α7 nAChRs [2]) | further results
NS(=O)(=O)c1ccc(-n2nc(-c3ccc(Br)cc3)nc2CCc2ccccc2)cc1 [TBS-556, 4-(3-(4-bromophenyl)-5-phenethyl-1H-1,2,4-triazol-1-yl)benzenesulfonamide] | 4.3 ± 0.6 fold | no significant displacement | 16 ± 13% | 10 ± 1.9% | 6.6 ± 1.0 fold | converted into agonists | 3.2 ± 0.9% | 4.7 ± 0.2 fold | no desensitisation was observed | 27 ± 6 fold | intermediate between those of classical type I and type II PAMs | caused recovery from desensitisation | 57.3 ± 10.1% | 1.0 ± 1.0% | 184 to 186 °C |  |  |  |  |  | 
NS(=O)(=O)c1ccc(-n2nc(-c3ccc(Br)cc3)nc2-c2ccccc2)cc1 [TBS-345, 4-(3-(4-bromophenyl)-5-phenyl-1H-1,2,4-triazol-1-yl)benzenesulfonamide] | 10.9 ± 0.73 fold | no significant displacement | 53.7 ± 18.3% | 18.3 ± 13.3% | 6.2 ± 1.2 fold | no agonist effect | 20.1 ± 19.0% | 8.8 ± 1.5 fold | no desensitisation was observed | 12 ± 2 fold | intermediate between those of classical type I and type II PAMs | caused recovery from desensitisation | 23.0 ± 2.1% | 47.3 ± 10.1% | 182 to 186 °C |  |  |  |  |  | 
COc1ccc(-c2nc(-c3ccc(Br)cc3)nn2-c2ccc(S(N)(=O)=O)cc2)cc1 [TBS-346, 4-(3-(4-bromophenyl)-5-(4-methoxyphenyl)-1H-1,2,4-triazol-1-yl)benzenesulfonamide] | 8.7 ± 5.3 fold | no significant displacement | 68.4 ± 3.0% | 30.8 ± 15.5% | 2.8 ± 0.6 fold | no agonist effect | 23.1 ± 5.7% | 10.5 ± 2.5 fold |  |  | minimal changes to desensitisation | no detectable responses |  | 13.4 ± 7.7% | 290 to 294 °C | 1.7 ± 0.3 | 100 ± 40 nM | 0.9 ± 0.1 | 0.0 ± 0.0 | 0.0 ± 0.0 | Block of agonist responses to TBS-516 (10 μM) (α7 M260L nAChRs; [5]): 83.4 ± 4.1%; Block of agonist responses to TQS (10 μM) (α7 M260L nAChRs; [5]): 95.7 ± 1.1%
NS(=O)(=O)c1ccc(-n2nc(-c3ccc(Br)cc3)nc2Cc2ccccc2)cc1 [TBS-516, 4-(5-benzyl-3-(4-bromophenyl)-1H-1,2,4-triazol-1-yl)benzenesulfonamide] | 3.6 ± 1.0 fold | no significant displacement | 31.1 ± 0.6% | 10.4 ± 7.5% | 8.0 ± 3.1 fold | converted into agonists | 1.7 ± 0.4% | 11.3 ± 3.1 fold | no desensitisation was observed | 250 ± 71 fold | dramatic slowing of desensitisation | caused recovery from desensitisation |  | 9.2 ± 12.8% | 203 to 205 °C | 2.5 ± 0.3 | 200 ± 40 nM | 1.1 ± 0.1 | 3.7 ± 0.6 | 0.0 ± 0.0 | nH (Hill coefficient) (α7 M260L nAChRs; α7 M260L, mean ± SEM): 1.8 ± 0.3; EC50 (α7 M260L nAChRs; α7 M260L, mean ± SEM, read-out: EC50 (agonist)): 8900 ± 2500 nM; Response on reactivation of desensitised receptors relative to response to 100 μM acetylcholine (human α7 nAChRs [2]; [4]): 3.2 ± 0.9 fold
CCCc1nc(-c2ccc(Br)cc2)nn1-c1ccc(S(N)(=O)=O)cc1 [TBS-546, 4-(3-(4-bromophenyl)-5-propyl-1H-1,2,4-triazol-1-yl)benzenesulfonamide] | 1.9 ± 0.2 fold | no significant displacement | 9.0 ± 3.5% | 15.2 ± 4.3% | 3.6 ± 0.6 fold | no agonist effect | 20.5 ± 5.9% | 4.7 ± 1.0 fold |  |  | intermediate between those of classical type I and type II PAMs | no detectable responses |  | 26.4 ± 16.0% | 204 to 208 °C |  |  |  |  |  | 
